According to patent US20240400547A1, “2,6-PIPERIDINEDIONE COMPOUND AND APPLICATION THEREOF” (MEDSHINE DISCOVERY INC., priority 2021, published 2024):
Structures can show the parent of a compound that is named as a salt.

Columns and labels:
[1] = test system: SU-DHL-2; test: Antiproliferative effect in lymphoma cell line SU-DHL-2 (CellTiter-Glo); assay type: cell-based, human; details: SU-DHL-2, 4 days; for IC50: Homo sapiens, 96 h
Description: Experimental purpose: The experiment aims to evaluate the inhibitory effects of the test compounds on cell proliferation in the lymphoma cell line SU-DHL-2.
The tumor cell lines were cultured in a 37° C., 5% CO2 incubator under the above culture conditions. Regular passage, and cells in logarithmic growth phase were taken for plating.
• (1) Cells were stained with trypan blue and viable cells were counted. • (2) The cell concentration was adjusted to an appropriate concentration.
• (3) 50 μL of cell suspension per well was added to the culture plate as shown in the figure above. • (4) The culture plate was cultured overnight in a 37° C., 5% CO2 incubator with 100% relative humidity.
Compounds were added using the Echo655 instrument. The volume of compound added was 50 nL, with a final DMSO concentration of 0.1%. The culture plate was centrifuged at 1000 rpm for 1 minute, then incubated for 4 days in an incubator at 37° C., 5% CO2, and with 100% relative humidity.
The following steps were performed according to the instructions of Promega CellTiter-Glo luminescent cell viability assay kit (Promega-G7573). • (1) CellTiter-Glo buffer was melted and brought to room temperature. • (2) CellTiter-Glo substrate was brought to room temperature. • (3) CellTiter-Glo working solution was prepared by adding CellTiter-Glo buffer to a vial of CellTiter-Glo substrate to dissolve the substrate; • (4) The mixture was slowly vortexed and shaken to be fully dissolved. • (5) The cell culture plate was taken out and left for 30 minutes to equilibrate to room temperature. • (6) 25 μL of CellTiter-Glo working solution was added per well (equal to half the volume of cell culture medium per well). The cell plate was wrapped in aluminum foil to be protected from light. • (7) The culture plate was shaken on an orbital shaker for 2 minutes to induce cell lysis. • (8) The culture plate was left at room temperature for 10 minutes to stabilize the luminescent signal. • (9) The luminescent signal was detected on a 2104 EnVision plate reader.
The inhibition rate (IR) of the test compound was calculated using the following formula: IR (%)=(1−(RLU compound/RLU blank control)/(RLU vehicle control−RLU blank control)×100%. The inhibition rates of compounds at different concentrations were calculated in Excel, and then GraphPad Prism software was used to plot inhibition curves and calculate relevant parameters, including minimum inhibition rate, maximum inhibition rate, and IC50.

[2] = test system: human B-cell lymphoma OCI-LY10 cells; test: In vivo efficacy in SCID mouse xenograft model of human B-cell lymphoma OCI-LY10 cells; design: species or system SCID mice; details: for Tumor volume (Day 0): Day 0 (grouping, baseline); for Tumor volume (Day 0) / Tumor volume (Day 28): average, SEM in next grid line
Description: The study evaluates the antitumor effect of the test compounds using a SID mouse xenograft model of human B-cell lymphoma OCI-LY10 cells.
• 1. Experimental animals: SCID mice, female, 6 to 8 weeks old, weighing 17 to 20 g. Beijing Vital River Laboratory Animal Technology Co., Ltd. • 2. Cell line: The human B-cell lymphoma OCI-LY10 cell line was purchased from Nanjing Cobioer Biosciences Co. Ltd (Cat. No CBP60558).
OCI-LY10 cells were cultured in IMDM medium containing 20% FBS and maintained in a 37° C. incubator with 5% CO2 and saturated humidity. Log phase OCI-LY10 cells were collected, resuspended in IMDM basic medium, and mixed 1:1 with Matrigel. The cell concentration was adjusted to 4×10^7/mL. Under sterile conditions, 0.1 mL of the cell suspension was inoculated subcutaneously into the right flank of SCID mice, with an inoculation concentration of 4×10^6/0.1 mL/mouse.
For the pharmacological experiment, once the tumors reached a certain size, animals with tumors that were either too large, too small, or irregularly shaped were eliminated. Animals with tumor volumes between 167.65 and 231.29 mm^3 were selected. Based on tumor volume, the animals were divided into groups using a random grouping method, with each group consisting of six mice, and the average tumor volume was approximately 201.15 mm^3. The day of grouping was designated as Day 0, and dosing began according to the body weight of the animals. The pharmacological study period lasted for 28 days, with dosing once a day and a 24-hour interval between doses. Intragastric administration was used for administration. During the experiment, the body weight and tumor size of the animals were measured twice a week. Clinical symptoms were observed and recorded daily.
The test compounds were administered at doses of 10 mg/kg, 30 mg/kg, and 100 mg/kg, with a solvent composition of 10% DMSO/10% Solutol/80% H2O. The formula for calculating tumor volume (TV) was: 1/2×a×b^2, where a and b were the measured length and width of the tumor, respectively. The formula for calculating the Tumor Growth Inhibition (TGI) rate was: TGI (%)=[(1−(average tumor volume at the end of administration in a treatment group−average tumor volume at the beginning of administration in this treatment group))/(average tumor volume at the end of treatment in the vehicle control group−average tumor volume at the beginning of treatment in the vehicle control group)]×100%. Relative Tumor Proliferation rate T/C (%): the calculation formula was as follows: T/C %=TRTV/CRTV×100% (TRTV: average RTV of the treatment group; CRTV: average RTV of the negative control group). According to the results of tumor measurement, the relative tumor volume (RTV) was calculated, and the calculation formula was RTV=Vt/V0, where V0 was the tumor volume measured at the time of group administration (i.e. Day 0), VT was the tumor volume at a certain measurement, and TRTV and CRTV were taken from the same day's data.
In this study, experimental data were presented in Mean±SEM.
Statistical analysis was performed using IBM SPSS Statistics software based on the RTV data at the end of the experiment. For comparisons between two groups, a T test was used. For comparisons among three or more groups, one-way ANOVA was utilized. If the variance was homogenous (no significant difference in F value), Tukey's method was applied for analysis. If the variance was heterogeneous (significant difference in F value), the Games-Howell method was used for testing. A p-value of […] was considered statistically significant.

[3] = 10 mg/kg intragastric once a day
[4] = 30 mg/kg intragastric once a day
[5] = 100 mg/kg intragastric once a day

| Structure (SMILES) | IC50 [1] | Maximum inhibition rate [1] | Tumor volume (Day 0) [2, 3] | T/C (%) (Day 28) [2, 3] | TGI (%) (Day 28) [2, 3] | Tumor volume (Day 28) [2, 3] | Tumor volume (Day 0) [2, 4] | T/C (%) (Day 28) [2, 4] | TGI (%) (Day 28) [2, 4] | Tumor volume (Day 28) [2, 4] | Tumor volume (Day 0) [2, 5] | T/C (%) (Day 28) [2, 5] | TGI (%) (Day 28) [2, 5] | Tumor volume (Day 28) [2, 5] |
| --- | --- | --- | --- | --- | --- | --- | --- | --- | --- | --- | --- | --- | --- | --- |
| CC(C)(O)c1cc2nc([C@H]3CC[C@H](CN4CCN(CC(=O)Nc5ccc6c(C7CCC(=O)NC7=O)noc6c5)CC4)CC3)sc2cc1NC(=O)c1cccc(C(F)(F)F)n1 (some centres unmarked) [Formate of WX026] | 0.91 nM | 100.08% | – | – | – | – | – | – | – | – | – | – | – | – |
| O=C1CCC(c2noc3ccc4c(NC(=O)CN5CCN(C[C@H]6CC[C@H](n7cc(NC(=O)c8coc(-c9ccnc(NCC%10CC%10)c9)n8)c(C(F)F)n7)CC6)CC5)cccc4c23)C(=O)N1 (some centres unmarked) [Hydrochloride of WX014] | 28.7 nM | 93.55% | 202.43 mm^3 | 47.40% | 60.43% | 685.61 mm^3 | 199.80 mm^3 | 23.07% | 89.94% | 322.68 mm^3 | 199.75 mm^3 | 12.80% | 100.96% | 188.01 mm^3 |
| O=C1CCC(c2noc3ccc4c(NC(=O)C(F)(F)C5CCN(CC6CCC(n7cc(NC(=O)c8coc(-c9ccnc(NCC%10CC%10)c9)n8)c(C(F)F)n7)CC6)CC5)cccc4c23)C(=O)N1 (centres unmarked) [Hydrochloride of WX018] | 11.7 nM | 100.27% | – | – | – | – | – | – | – | – | – | – | – | – |
| O=C1CCC(c2coc3ccc4c(NC(=O)CN5CCN(C[C@H]6CC[C@H](n7cc(NC(=O)c8coc(-c9ccnc(NCC%10CC%10)c9)n8)c(C(F)F)n7)CC6)CC5)cccc4c23)C(=O)N1 (some centres unmarked) [Trifluoroacetate of WX011] | 25.2 nM | 99.89% | – | – | – | – | – | – | – | – | – | – | – | – |
